Results from patent US10632106B2, “Methods of cancer treatment with 2-(1′H-Indole-3′-carbonyl)-thiazole-4-carboxylic acid methyl ester” (Ariagen, Inc., priority 2009, dated 2020).

Experiment: Effects of oral water administration on ITE dosed mice
Assay type: in vivo
Design: key to feces appearance: Moderate; Dry
Conditions: for feces appearance (visual): after one week of dosing
Procedure: Oral injection of water was initiated at the same day i.p. administration of ITE was started. Daily oral gavage at 10 or 20 ml/kg was performed immediately following daily i.p. injection of ITE or DMSO continuously for the entire duration of the study. Both oral and i.p. injection were accidentally skipped at day 14 due to a mistake of the experimenter(s) and all of the other dosing were executed normally. Bodyweights (individual), food consumed (in group), feces weights (in group), and feces appearance (in group) were recorded every two days. Death of animal(s) and approximate cause of death etc. were also recorded.

[1] = ITE-H 300 mg/kg i.p. + Water-0, day 4
[2] = ITE-H 300 mg/kg i.p. + Water-0, day 6
[3] = ITE-H 300 mg/kg i.p. + Water-0, day 8
[4] = ITE-H 300 mg/kg i.p. + Water-0, day 10
[5] = ITE-H 300 mg/kg i.p. + Water-0, day 12
[6] = ITE-H 300 mg/kg i.p. + Water-0, day 14
[7] = ITE-H 300 mg/kg i.p. + Water-0, day 18 (line r16)
[8] = ITE-H 300 mg/kg i.p. + Water-0, day 18 (line r17)
[9] = ITE-H 300 mg/kg i.p. + Water-0, day 20
[10] = ITE-H 300 mg/kg i.p. + Water-0, day 22
[11] = ITE-H 300 mg/kg i.p. + Water-0, day 24
[12] = ITE-H 300 mg/kg i.p. + Water-0, day 26
[13] = ITE-H 300 mg/kg i.p. + Water-0, day 28
[14] = ITE-H 300 mg/kg i.p. + Water-0, day 30
[15] = ITE-H 300 mg/kg i.p. + Water-0, day 32
[16] = ITE-H 300 mg/kg i.p. + Water-0, day 34
[17] = ITE-H 300 mg/kg i.p. + Water-0, day 36
[18] = ITE-H 300 mg/kg i.p. + Water-H 20 ml/kg, day 4
[19] = ITE-H 300 mg/kg i.p. + Water-H 20 ml/kg, day 6
[20] = ITE-H 300 mg/kg i.p. + Water-H 20 ml/kg, day 8
[21] = ITE-H 300 mg/kg i.p. + Water-H 20 ml/kg, day 10
[22] = ITE-H 300 mg/kg i.p. + Water-H 20 ml/kg, day 12
[23] = ITE-H 300 mg/kg i.p. + Water-H 20 ml/kg, day 14
[24] = ITE-H 300 mg/kg i.p. + Water-H 20 ml/kg, day 18 (line r16)
[25] = ITE-H 300 mg/kg i.p. + Water-H 20 ml/kg, day 18 (line r17)
[26] = ITE-H 300 mg/kg i.p. + Water-H 20 ml/kg, day 20
[27] = ITE-H 300 mg/kg i.p. + Water-H 20 ml/kg, day 22
[28] = ITE-H 300 mg/kg i.p. + Water-H 20 ml/kg, day 24
[29] = ITE-H 300 mg/kg i.p. + Water-H 20 ml/kg, day 26
[30] = ITE-H 300 mg/kg i.p. + Water-H 20 ml/kg, day 28
[31] = ITE-H 300 mg/kg i.p. + Water-H 20 ml/kg, day 30
[32] = ITE-H 300 mg/kg i.p. + Water-H 20 ml/kg, day 32
[33] = ITE-H 300 mg/kg i.p. + Water-H 20 ml/kg, day 34
[34] = ITE-H 300 mg/kg i.p. + Water-L 10 ml/kg, day 4
[35] = ITE-H 300 mg/kg i.p. + Water-L 10 ml/kg, day 6
[36] = ITE-H 300 mg/kg i.p. + Water-L 10 ml/kg, day 8
[37] = ITE-H 300 mg/kg i.p. + Water-L 10 ml/kg, day 10
[38] = ITE-H 300 mg/kg i.p. + Water-L 10 ml/kg, day 12
[39] = ITE-H 300 mg/kg i.p. + Water-L 10 ml/kg, day 14
[40] = ITE-H 300 mg/kg i.p. + Water-L 10 ml/kg, day 18 (line r16)
[41] = ITE-H 300 mg/kg i.p. + Water-L 10 ml/kg, day 18 (line r17)
[42] = ITE-H 300 mg/kg i.p. + Water-L 10 ml/kg, day 20
[43] = ITE-H 300 mg/kg i.p. + Water-L 10 ml/kg, day 22
[44] = ITE-H 300 mg/kg i.p. + Water-L 10 ml/kg, day 24
[45] = ITE-H 300 mg/kg i.p. + Water-L 10 ml/kg, day 26
[46] = ITE-H 300 mg/kg i.p. + Water-L 10 ml/kg, day 28
[47] = ITE-H 300 mg/kg i.p. + Water-L 10 ml/kg, day 30
[48] = ITE-H 300 mg/kg i.p. + Water-L 10 ml/kg, day 32
[49] = ITE-H 300 mg/kg i.p. + Water-L 10 ml/kg, day 34

Question: Which “feces appearance (visual)” value (ITE high (300 mg/kg)) does the source give for `COC(=O)c1csc(C(=O)c2c[nH]c3ccccc23)n1` [ITE, 2-(1′H-indole-3′-carbonyl)-thiazole-4-carboxylic acid methyl ester] here?
Answer: dry

Question: What about the “day at which one mouse died” value (ITE high dose (300 mg/kg) without oral water administration) of the same molecule?
Answer: 36 days

Question: And the “feces appearance (visual)” value (ITE low (200 mg/kg))?
Answer: dry

Question: And the “day at which one mouse died” value (ITE low dose (200 mg/kg) without oral water administration)?
Answer: 28 days

Question: What about the feces appearance [1] of the same molecule?
Answer: M

Question: What about the “number of mice that died” value [1] of the same molecule?
Answer: 0

Question: What about the feces appearance [2] of the same molecule?
Answer: M

Question: What about the “number of mice that died” value [2] of the same molecule?
Answer: 0

Question: What about the feces appearance [3] of the same molecule?
Answer: D

Question: What about the “number of mice that died” value [3] of the same molecule?
Answer: 0

Question: And the feces appearance [4]?
Answer: D

Question: And the “number of mice that died” value [4]?
Answer: 0

Question: And the feces appearance [5]?
Answer: D

Question: And the “number of mice that died” value [5]?
Answer: 0

Question: What about the feces appearance [6] of the same molecule?
Answer: D

Question: And the “number of mice that died” value [6]?
Answer: 0

Question: What about the feces appearance [7] of the same molecule?
Answer: D

Question: What about the “number of mice that died” value [7] of the same molecule?
Answer: 0

Question: What about the feces appearance [8] of the same molecule?
Answer: D

Question: What about the “number of mice that died” value [8] of the same molecule?
Answer: 0

Question: And the feces appearance [9]?
Answer: D

Question: What about the “number of mice that died” value [9] of the same molecule?
Answer: 0

Question: What about the feces appearance [10] of the same molecule?
Answer: D

Question: And the “number of mice that died” value [10]?
Answer: 0

Question: What about the feces appearance [11] of the same molecule?
Answer: D

Question: And the “number of mice that died” value [11]?
Answer: 0

Question: And the feces appearance [12]?
Answer: D

Question: And the “number of mice that died” value [12]?
Answer: 0

Question: What about the feces appearance [13] of the same molecule?
Answer: D

Question: And the “number of mice that died” value [13]?
Answer: 0

Question: And the feces appearance [14]?
Answer: D

Question: What about the “number of mice that died” value [14] of the same molecule?
Answer: 0

Question: And the feces appearance [15]?
Answer: D

Question: What about the “number of mice that died” value [15] of the same molecule?
Answer: 0

Question: And the feces appearance [16]?
Answer: D

Question: What about the “number of mice that died” value [16] of the same molecule?
Answer: 0

Question: And the feces appearance [17]?
Answer: D

Question: What about the “number of mice that died” value [17] of the same molecule?
Answer: 1

Question: And the feces appearance [18]?
Answer: M

Question: And the “number of mice that died” value [18]?
Answer: 0

Question: And the feces appearance [19]?
Answer: M

Question: And the “number of mice that died” value [19]?
Answer: 0

Question: And the feces appearance [20]?
Answer: D

Question: And the “number of mice that died” value [20]?
Answer: 0

Question: And the feces appearance [21]?
Answer: D

Question: And the “number of mice that died” value [21]?
Answer: 0

Question: And the feces appearance [22]?
Answer: D

Question: What about the “number of mice that died” value [22] of the same molecule?
Answer: 0

Question: What about the feces appearance [23] of the same molecule?
Answer: D

Question: What about the “number of mice that died” value [23] of the same molecule?
Answer: 0

Question: And the feces appearance [24]?
Answer: D

Question: What about the “number of mice that died” value [24] of the same molecule?
Answer: 0

Question: And the feces appearance [25]?
Answer: D

Question: And the “number of mice that died” value [25]?
Answer: 0

Question: And the feces appearance [26]?
Answer: D

Question: And the “number of mice that died” value [26]?
Answer: 0

Question: What about the feces appearance [27] of the same molecule?
Answer: D

Question: What about the “number of mice that died” value [27] of the same molecule?
Answer: 0

Question: And the feces appearance [28]?
Answer: D

Question: What about the “number of mice that died” value [28] of the same molecule?
Answer: 0

Question: What about the feces appearance [29] of the same molecule?
Answer: D

Question: What about the “number of mice that died” value [29] of the same molecule?
Answer: 0

Question: What about the feces appearance [30] of the same molecule?
Answer: M

Question: And the “number of mice that died” value [30]?
Answer: 0

Question: And the feces appearance [31]?
Answer: M

Question: And the “number of mice that died” value [31]?
Answer: 0

Question: What about the feces appearance [32] of the same molecule?
Answer: M

Question: What about the “number of mice that died” value [32] of the same molecule?
Answer: 0

Question: And the feces appearance [33]?
Answer: M

Question: And the “number of mice that died” value [33]?
Answer: 0

Question: And the feces appearance [34]?
Answer: M

Question: And the “number of mice that died” value [34]?
Answer: 0

Question: What about the feces appearance [35] of the same molecule?
Answer: M

Question: And the “number of mice that died” value [35]?
Answer: 0

Question: What about the feces appearance [36] of the same molecule?
Answer: D

Question: And the “number of mice that died” value [36]?
Answer: 0

Question: What about the feces appearance [37] of the same molecule?
Answer: D

Question: What about the “number of mice that died” value [37] of the same molecule?
Answer: 0

Question: And the feces appearance [38]?
Answer: D

Question: What about the “number of mice that died” value [38] of the same molecule?
Answer: 0

Question: And the feces appearance [39]?
Answer: D

Question: What about the “number of mice that died” value [39] of the same molecule?
Answer: 0

Question: And the feces appearance [40]?
Answer: D

Question: And the “number of mice that died” value [40]?
Answer: 0

Question: What about the feces appearance [41] of the same molecule?
Answer: D

Question: And the “number of mice that died” value [41]?
Answer: 0

Question: What about the feces appearance [42] of the same molecule?
Answer: D

Question: What about the “number of mice that died” value [42] of the same molecule?
Answer: 0

Question: What about the feces appearance [43] of the same molecule?
Answer: D

Question: What about the “number of mice that died” value [43] of the same molecule?
Answer: 0

Question: What about the feces appearance [44] of the same molecule?
Answer: D

Question: What about the “number of mice that died” value [44] of the same molecule?
Answer: 0

Question: What about the feces appearance [45] of the same molecule?
Answer: D

Question: And the “number of mice that died” value [45]?
Answer: 0

Question: What about the feces appearance [46] of the same molecule?
Answer: M

Question: What about the “number of mice that died” value [46] of the same molecule?
Answer: 0

Question: And the feces appearance [47]?
Answer: M

Question: What about the “number of mice that died” value [47] of the same molecule?
Answer: 0

Question: What about the feces appearance [48] of the same molecule?
Answer: M

Question: And the “number of mice that died” value [48]?
Answer: 0

Question: What about the feces appearance [49] of the same molecule?
Answer: M

Question: And the “number of mice that died” value [49]?
Answer: 0
